Reference: patent publication US8741889B2, “Method of treating non-small cell lung cancer and colon cancer with gamma-secretase inhibitor” (Hoffmann-La Roche Inc, priority 2008, dated 2014)

Test system: A549 non-small cell lung carcinoma (NSCLC) xenografts
Assay: Antitumor efficacy in A549 NSCLC xenografts in nude mice
Type: in vivo
Details: for % TGI: day 47
Protocol: In the current study, compound (1) was evaluated for its antitumor activity against the A549 NSCLC human xenograft model in nude mice. A549 cells appear to have a functional Notch signaling pathway since receptors, ligands, and downstream effectors such as Hes-1 and Hey-1 are expressed (as assessed by PCR-based gene expression profiling). A549 cells have at least one identifiable defect in the Notch pathway; the negative regulator Numb is expressed only at low levels. In vitro, nM concentrations of compound (1) induce a less transformed phenotype in A549 cells and loss of growth in soft agar […], which is consistent with mechanistic inhibition of Notch activation. […] Female nude mice (10/group), obtained from Charles River Laboratories (Wilmington, Mass.) were used when they were approximately 13-14 weeks old and weighed approximately 23-25 grams. The health of all animals was determined daily by gross observation of experimental animals and by the analyses of blood samples of sentinel animals that were housed on the shared shelf racks. All animals were allowed to acclimate and recover from any shipping related stress for a minimum of 72 hours prior to experimental use. Autoclaved water and irradiated food [5058-ms Pico chow (mouse) Purina, Richmond, Ind.] were provided ad libitum, and the animals were maintained on a 12 hour light and dark cycle. Cages, bedding and water bottles were autoclaved before use and were changed weekly. A549 human NSCLC cells were purchased from ATCC (Manassas, Va.) and cultured in RPMI 1640 culture medium with 10% (v/v) FBS. Cells were grown and harvested by members of the Oncology In Vivo Section (OIVS). Each mouse received 7.5×10^6 cells in 0.2 ml PBS (Phosphate Buffered Saline) implanted subcutaneously in the right hind flank by members of OIVS on Aug. 17, 2006. […] Compound (1) was mixed vigorously prior to withdrawal and administration. Formulated compound and vehicle were prepared weekly and stored at 4° C., as set out below. […] Treatment began on Sep. 12, 2006 (day 26 post tumor cell implant). […] 19, 2006 (day 33 post tumor cell implant). […] 3, 2006 (day 47 post tumor cell implant). Efficacy data was graphically represented as the mean tumor volume+standard error of the mean (SEM). Tumor volumes of treated groups were presented as percentages of tumor volumes of the control groups (% T/C), using the formula: 100×((T−T0)/(C−C0)), where T represented mean tumor volume of a treated group on a specific day during the experiment, T0 represented mean tumor volume of the same treated group on the first day of treatment; C represented mean tumor volume of a control group on the specific day during the experiment, and C0 represented mean tumor volume of the same treated group on the first day of treatment. Tumor volume (in cubic millimeters) was calculated using the ellipsoid formula: (D×(d2))/2 where ‘D’ represents the large diameter of the tumor, and ‘d’ represents the small diameter. In some cases, tumor regression and/or percent change in tumor volume was calculated using the formula: ((T−T0)/T0)×100 where ‘T’ represents mean tumor volume of the treated group at a particular day, and ‘T0’ represents mean tumor volume of the same treated group at initiation of treatment. Statistical analysis was determined by the rank sum test and One Way Anova and a post-hoc Bonferroni t-test (SigmaStat, version 2.0, Jandel Scientific, San Francisco, Calif.). Differences between groups were considered to be significant when the probability value (p) was ≦0.05. […] Percent tumor growth inhibition was calculated on day 47, which was the final day of treatment for the 21-day treated groups, 7 days post-treatment for 14-day treated groups (14+/7−), or 14-days post treatment for the 7-day treated group (7+/14−).

CC(C)(C(=O)NCC(F)(F)C(F)(F)F)C(=O)N[C@@H]1C(=O)Nc2ccccc2-c2ccccc21 [Compound (1), 2,2-Dimethyl-N—((S)-6-oxo-6,7-dihydro-5H-dibenzo[b,d]azepin-7-yl)-N′-(2,2,3,3,3-pentafluoro-propyl)-malonamide]
% TGI (3 mg/kg po bid × 21 days): 83%
% TGI (3 mg/kg po bid, 14+/7− schedule): 83%
% TGI (3 mg/kg po qd × 21 days): 76%
% TGI (3 mg/kg po qd, 14+/7− schedule): 66%
% TGI (10 mg/kg po bid × 21 days): 72%
% TGI (10 mg/kg po bid, 14+/7− schedule): 80%
% TGI (10 mg/kg po qd × 21 days): 70%
% TGI (10 mg/kg po qd, 14+/7− schedule): 77%
% TGI (30 mg/kg po bid, 14+/7− schedule): 79%
% TGI (30 mg/kg po qd × 21 days): 66%
% TGI (30 mg/kg po qd, 14+/7− schedule): 79%
inhibition of tumor growth sustained post treatment (60 mg/kg bid, 7+/14− schedule (to day 67)): up to 34 days
% TGI (60 mg/kg po bid, 7+/14− schedule): 91%
% TGI (60 mg/kg po qd, 14+/7− schedule): 88%
% TGIs (range) (3, 10 or 30 mg/kg once or twice daily for 14 (14+/7−) or 21 days): 66-83%
inhibition of tumor growth sustained post treatment (all 21-day treated groups (to day 63)): up to 16 days
growth suppression lasting post treatment (all qd or bid groups, 14+/7− schedule (to day 63)): up to 23 days
tumor growth inhibition (range) (seven or fourteen days of BID treatment out of a 21 day cycle): 79-91%
